Columns and labels:
[1] = tested on: stress-induced gastric ulcer in rats; test: Protective effect on gastric ulcer induced by restraint plus water-immersion stress in rats; assay type: in vivo, male Sprague-Dawley rats; conditions: 10 mg/kg po; for Ulcer index: mean ± S.E.; for inhibition in vivo at 10 mg/kg: Rattus norvegicus, stress-induced ulcer
Method: 1.1 Protective Effect on Gastric Ulcer Induced by Restraint Plus Water-Immersion Stress in Rats
Male Sprague-Dawley rats weighing 250-300 g were used in groups of 5-34. The animals were given the compounds by the oral route after fasting overnight. Immediately, under light ether anesthesia they were placed in a restraint box and immersed in water at 20° C. for 6 or 7 hours. Then the animals were sacrificed, and their stomachs were isolated, inflated with 4 ml of 1% formalin for 10 minutes, opened along the greater curvature, and examined for the presence of gastric erosions. The longest axis of each erosion induced on the glandular section of the stomach was measured, and the sum of the lengths was defined as an ulcer index.

in vivo = conditions: mouse, in vivo, mice
Method: (§1) LD50 values of the compounds of this invention were determined after intravenous injection or intraperitoneal administration to mice for acute toxicity test. The studies were carried out using male and female NMRI mice (n=3/group) having a body weight between 19-21 g.

[2] = tested on: ethanol-induced gastric ulcer in rats; test: Protective effect on ethanol-induced gastric ulcer in rats; assay type: in vivo, male Sprague-Dawley rats; conditions: 10 mg/kg po; for Ulcer index: mean ± S.E.; for inhibition in vivo at 10 mg/kg: Rattus norvegicus
Method: 1.2 Protective Effect on Ethanol-Induced Gastric Ulcer in Rats
Male Sprague-Dawley rats weighing 250-300 g were used in groups of 5-24. After fasting overnight, the animals were given orally the compounds. Thirty minutes later they received absolute ethanol (1 ml/body) orally and were sacrificed after 60 minutes. The stomach was removed and examined for erosions. The ulcer index was obtained in the same way as under 1.1.

mice = test: in vivo; conditions: acute
Method: as §1

peptic ulcer disease = conditions: Ter. Arkh. 57, 52-55, 1985; cited from earlier work
[3] = series with control (distilled water) 19.7 ± 2.9 mm
[4] = series with control 19.7 ± 2.9 mm
[5] = ip, intraperitoneal administration, 7 days (footnote b)
[6] = series with control (distilled water) 111.6 ± 10.4 mm
[7] = series with control 111.6 ± 10.4 mm
[8] = series with control (distilled water) 26.2 ± 1.6 mm
[9] = series with control 26.2 ± 1.6 mm
[10] = series with control (distilled water) 164.7 ± 19.4 mm
[11] = series with control 164.7 ± 19.4 mm
[12] = series with control (10% EtOH) 118.8 ± 9.6 mm

SMILES	Ulcer index [1, 3]	inhibition in vivo at 10 mg/kg [1, 4]	LD50 at 168 h (in vivo; intravenous, n=3/group, 7 days)	Ulcer index [1, 8]	inhibition in vivo at 10 mg/kg [1, 9]	other results
C=CCn1c(=O)c2c(ncn2CCCCC(C)O)n(C)c1=O (stereo not shown) [Compound 18, 1-Allyl-7-(5-hydroxyhexyl)-3-methylxanthine]	15.3 ± 2.1 mm	22.3%	–	–	–	LD50 at 168 h (in vivo; [5]): 250 to 500 mg/kg
CCn1c(=O)c2c(ncn2CCCCC(C)=O)n(C)c1=O [Compound 22]	8.0 ± 4.2 mm	59%	–	–	–	LD50 at 168 h (in vivo; [5]): 200 to 400 mg/kg
CC(=O)CCCCn1cnc2c1c(=O)n(CC(C)=O)c(=O)n2C [Compound 24, 3-Methyl-7-(5-oxohexyl)-1-(2-oxopropyl)-xanthine]	10.3 ± 3.5 mm	47.7%	> 200 mg/kg	–	–	–
CCCCn1c(=O)c2c(ncn2CCCCC(O)CO)n(C)c1=O (stereo not shown) [Compound 10]	–	–	–	4.5 ± 1.4 mm	82.8%	Ulcer index [2, 6]: 1.1 ± 0.5 mm; inhibition in vivo at 10 mg/kg [2, 7]: 99%
CCCn1c(=O)c2c(ncn2CCCCC(O)CO)n(CC)c1=O (stereo not shown) [Compound 1]	2.7 ± 0.9 mm	86.3%	–	–	–	Ulcer index [2, 10]: 6.7 ± 2.1 mm; inhibition in vivo at 10 mg/kg [2, 11]: 95.8%; toxicity (in words) (mice): low toxicity
CCCn1cnc2c1c(=O)n(CCCCC(O)CO)c(=O)n2CC (stereo not shown) [Compound 14]	–	–	–	10.4 ± 1.9 mm	60.2%	LD50 at 168 h (in vivo; [5]): 300 to 600 mg/kg
CCCn1c(=O)c2c(ncn2CCCCC(C)O)n(C)c1=O (stereo not shown) [Compound 15]	2.2 ± 0.9 mm	88.9%	–	–	–	LD50 at 168 h (in vivo; intravenous, method of LitchfieldWilcoxon using 10 mice/dose (footnote a)): 123 mg/kg
CC(=O)CCCCn1c(=O)c2c(ncn2CC(C)O)n(C)c1=O (stereo not shown) [Compound 20]	6.9 ± 2.1 mm	65%	> 200 mg/kg	–	–	–
CCn1c(=O)n(CC(C)=O)c(=O)c2c1ncn2CCCCC(O)CO (stereo not shown) [Compound 7, 3-Ethyl-7-(5,6-dihydroxyhexyl)-1-(2-oxopropyl)-xanthine]	–	–	> 200 mg/kg	20.4 ± 4.1 mm	21.9%	–
CC(=O)Cn1cnc2c1c(=O)n(CCCCC(C)O)c(=O)n2C (stereo not shown) [Compound 23, 1-(5-Hydroxyhexyl)-3-methyl-7-(2-oxopropyl)-xanthine]	15.8 ± 4.6 mm	19.8%	> 200 mg/kg	–	–	–
CCn1c(=O)n(CC(C)C)c(=O)c2c1ncn2CCCCC(O)CO (stereo not shown) [Compound 5]	–	–	> 200 mg/kg	7.1 ± 1.8 mm	72.9%	–
CCCCn1c(=O)c2c(ncn2CCCCC(C)O)n(C)c1=O (stereo not shown) [Compound 16]	–	–	100 to 200 mg/kg	10.6 ± 0.9 mm	59.4%	Ulcer index [2, 6]: 4.1 ± 0.8 mm; inhibition in vivo at 10 mg/kg [2, 7]: 96.3%
CCCCCCn1c(=O)c2c(ncn2CCCCC(C)O)n(C)c1=O (stereo not shown) [Compound 17]	–	–	–	–	–	Ulcer index [2, 12]: 13.4 ± 5.2 mm; inhibition in vivo at 10 mg/kg [2, 12]: 88.7%; LD50 at 168 h (in vivo; [5]): 500 to 1000 mg/kg
CC(=O)Cn1c(=O)c2c(ncn2CCCCC(C)O)n(C)c1=O (stereo not shown) [Compound 19, 7-(5-Hydroxyhexyl)-3-methyl-1-(2-oxopropyl)-xanthine]	–	–	> 200 mg/kg	15.0 ± 2.4 mm	42.8%	–
CC(=O)CCCCn1c(=O)c2c(ncn2CCCCC(O)CO)n(C)c1=O (stereo not shown) [Compound 11, 7-(5,6-dihydroxyhexyl)-3-methyl-1-(5-oxohexyl)-xanthine]	–	–	> 200 mg/kg	13.8 ± 1.7 mm	47.4%	–
C=CCn1c(=O)c2c(ncn2CCCCC(O)CO)n(CC)c1=O (stereo not shown) [Compound 6, 1-Allyl-3-ethyl-7-(5,6-dihydroxyhexyl)-xanthine]	–	–	> 200 mg/kg	7.0 ± 0.9 mm	73.2%	Ulcer index [2, 6]: 10.7 ± 1.4 mm; inhibition in vivo at 10 mg/kg [2, 7]: 90.4%
CCCCn1c(=O)c2c(ncn2CCCCC(O)CO)n(CC)c1=O (stereo not shown) [Compound 3]	6.0 ± 1.9 mm	69.6%	–	–	–	Ulcer index [2, 10]: 5.3 ± 3.3 mm; inhibition in vivo at 10 mg/kg [2, 11]: 96.8%
CCn1c(=O)n(C(C)C)c(=O)c2c1ncn2CCCCC(O)CO (stereo not shown) [Compound 2]	–	–	–	11.5 ± 2.1 mm	56%	Ulcer index [2, 6]: 6.7 ± 2.8 mm; inhibition in vivo at 10 mg/kg [2, 7]: 94%
CCCn1c(=O)c2c(ncn2CCCC(O)C(C)O)n(CC)c1=O (stereo not shown) [Compound 12]	–	–	> 200 mg/kg	4.3 ± 0.8 mm	83.5%	–
CCCCCn1c(=O)c2c(ncn2CCCCC(O)CO)n(CC)c1=O (stereo not shown) [Compound 4]	–	–	> 200 mg/kg	9.2 ± 1.9 mm	64.7%	Ulcer index [2, 6]: 15.6 ± 5.8 mm; inhibition in vivo at 10 mg/kg [2, 7]: 86%
CC(=O)CCCCn1c(=O)c2c(ncn2C)n(C)c1=O [Compound 25, 1,2,3,6-tetrahydro-3,7-dimethyl-1-(5-oxohexyl)-purine-2,6-dione, reference compound]	–	12.7%	–	–	–	inhibition in vivo at 10 mg/kg [2, 11]: 78.8%; antiulcer effects (in words) (peptic ulcer disease): antiulcer effects
CCCn1c(=O)c2c(ncn2CCCCCC(O)CO)n(CC)c1=O (stereo not shown) [Compound 13]	–	–	200 to 400 mg/kg	8.9 ± 2.1 mm	66%	Ulcer index [2, 6]: 5.0 ± 2.2 mm; inhibition in vivo at 10 mg/kg [2, 7]: 95.5%
C=CCn1cnc2c1c(=O)n(CCCCC(C)O)c(=O)n2C (stereo not shown) [Compound 21, 7-allyl-1-(5-hydroxyhexyl)-3-methylxanthine]	–	–	100 to 200 mg/kg	13.4 ± 3.2 mm	48.9%	–
CCn1c(=O)n(CC(C)O)c(=O)c2c1ncn2CCCCC(O)CO (stereo not shown) [Compound 8, 3-Ethyl-7-(5,6-dihydroxyhexyl)-1-(2-hydroxypropyl)-xanthine]	–	–	> 200 mg/kg	20.7 ± 4.6 mm	21%	–
CCCn1c(=O)n(CCCCC(C)=O)c(=O)c2c1ncn2CCCCC(O)CO (stereo not shown) [Compound 9, 7-(5,6-Dihydroxyhexyl)-1-(5-oxohexyl)-3-n-propylxanthine]	–	–	> 200 mg/kg	20.2 ± 5.8 mm	22.9%	–

From patent US5082845A, “Therapeutic xanthine derivatives for the treatment of peptic ulcer disease” (Hoechst Japan Limited, priority 1988, dated 1992)
